What follows are compounds tested against T1, WT/R232 STING protein (Homo sapiens, UniProt Q86WV6, H232R) (assay: Luciferase reporter assay in HEK293T-hSTING-Luciferase cells (R232)). Details: 20 hr stimulation, EC50 range.
T1 construct: host or cells: HEK293T
Type: cell-based
Source text: • a) Stable STING expressing cells—Stable HEK293T STING-expressing cell lines were generated using plasmids purchased from Invivogen, CA, USA, that contain STING cDNA cloned into the pUNO-1 vector under hEF1-HTLV promoter and containing the Blasticidin selection cassette. The plasmids hSTING (R232), hSTING (H232), hSTING (HAQ) were directly procured from Invivogen while hSTING (AQ) and hSTING (Q) were derived from hSTING (HAQ) and hSTING (R232) plasmids respectively by using a PCR based site directed mutagenesis method. These vectors were individually transfected into HEK293T cells using Lipofectamine (Invitrogen) and transfected cells were selected under Blasticidin selection. These transfected cells were further subjected to clonal selection using the limiting dilution method to obtain clonally pure populations of HEK cells transfected with each of the above mentioned human STING variants. Only those clones were selected in which ligand independent activation of STING was minimal. • b) Stable Luciferase reporter gene expressing cells—Stable HEK293T Luciferase reporter gene expressing cell lines were generated using pCDNA4 plasmids under an IRF-inducible promoter. This promoter is comprised of five tandem interferon-stimulated response elements (ISRE) fused to an ISG54 minimal promoter. This vector was transfected into HEK293T cells using Lipofectamine (Invitrogen) and transfected cells were selected under Zeocin selection. These transfected cells were further subjected to clonal selection using the limiting dilution method to obtain clonally pure populations of HEK cells transfected the Luciferase reporter construct. Only those clones were selected in which ligand independent induction of luciferase was minimal.
5×10^5 clonally selected HEK293T-hSTING-Luciferase cells were seeded in 384-well plates in growth medium and stimulated with novel compounds. After 20 hr of stimulation supernatant were removed and secretary reporter gene activity were measured using the Quanti-Luc detection system (Invivogen) on a Spectramax i3X luminometer.
All compounds were first tested in a primary screen using WT/R232 STING protein to obtain a ‘fold-induction’ over baseline levels of protein activity.

T1 sequence (Q86WV6 whole entry H232R): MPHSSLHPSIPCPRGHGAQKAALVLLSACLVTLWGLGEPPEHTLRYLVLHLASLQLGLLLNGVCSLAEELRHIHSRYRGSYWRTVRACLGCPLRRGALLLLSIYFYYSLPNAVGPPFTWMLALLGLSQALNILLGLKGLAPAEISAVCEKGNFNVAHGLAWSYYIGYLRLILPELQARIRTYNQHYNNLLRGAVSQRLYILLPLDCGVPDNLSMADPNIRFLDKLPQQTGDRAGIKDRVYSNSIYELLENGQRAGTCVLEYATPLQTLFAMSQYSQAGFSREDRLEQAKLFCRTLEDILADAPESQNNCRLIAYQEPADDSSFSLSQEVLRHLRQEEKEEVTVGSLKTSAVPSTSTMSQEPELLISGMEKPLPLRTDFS

| SMILES | EC50 |
| --- | --- |
| Cn1ncc2cccc(CN3C(=O)C(C)(C)c4ccc(C(=O)NCc5c(F)cc(F)cc5F)cc43)c21 [Example 96, 3,3-dimethyl-1-((1-methyl-1H-indazol-7-yl)methyl)-2-oxo-N-(2,4,6-trifluorobenzyl)indoline-6-carboxamide] | 1 to 10 µM |
| CC1(C)C(=O)N(Cc2cc(F)cc(F)c2)c2cc(C(=O)NCc3c(F)cc(F)cc3F)cnc21 [Example 179, 1-(3,5-Difluorobenzyl)-3,3-dimethyl-2-oxo-N-(2,4,6-trifluorobenzyl)-2,3-dihydro-1H-pyrrolo[3,2-b]pyridine-6-carboxamide] | 1 to 10 µM |
| COc1ccc(F)c(CN2C(=O)C(C)(C)c3ccc(C(=O)NCc4c(F)cc(F)cc4F)cc32)c1Cl [Example 66, 1-(2-chloro-6-fluoro-3-methoxybenzyl)-3,3-dimethyl-2-oxo-N-(2,4,6-trifluorobenzyl)indoline-6-carboxamide] | ≤ 1 µM |
| CC1(C)C(=O)N(Cc2cccc(F)c2)c2cc(C(=O)NCc3ccco3)ccc21 [Example 42, 1-(3-fluorobenzyl)-N-(furan-2-ylmethyl)-3,3-dimethyl-2-oxoindoline-6-carboxamide] | > 10 µM |
| O=C(NCc1c(F)cc(F)cc1F)c1ccc2c(c1)N(Cc1c(F)cccc1Cl)C(=O)C2(Cl)c1ccccc1 (centres unmarked) [Example 156, 3-chloro-1-(2-chloro-6-fluorobenzyl)-2-oxo-3-phenyl-N-(2,4,6-trifluorobenzyl)indoline-6-carboxamide] | > 10 µM |
| O=C(NCc1c(F)cc(F)cc1F)c1ccc2c(c1)N(Cc1c(F)cccc1Cl)C(=O)C2=O [Example 142, 1-(2-Chloro-6-fluorobenzyl)-2,3-dioxo-N-(2,4,6-trifluorobenzyl)indoline-6-carboxamide] | > 10 µM |
| CC1(C)C(=O)N(Cc2c(F)cccc2Cl)c2cc(C(=O)NCc3cccc4occc34)ccc21 [Example 93, N-(benzofuran-4-ylmethyl)-1-(2-chloro-6-fluorobenzyl)-3,3-dimethyl-2-oxoindoline-6-carboxamide] | > 10 µM |
| CC1(C)C(=O)N(Cc2cc(F)cc(F)c2)c2cc(C(=O)NCc3cccc(N=[N+]=[N-])c3)ccc21 [Example 47, N-(3-azidobenzyl)-1-(3,5-difluorobenzyl)-3,3-dimethyl-2-oxoindoline-6-carboxamide] | 1 to 10 µM |
| CC1(C)C(=O)N(Cc2c(F)ccc(O)c2Cl)c2cc(C(=O)NCc3c(F)cc(F)cc3F)ccc21 [Example 67, 1-(2-chloro-6-fluoro-3-hydroxybenzyl)-3,3-dimethyl-2-oxo-N-(2,4,6-trifluorobenzyl)indoline-6-carboxamide] | ≤ 1 µM |
| Cc1cccc(-c2nc(CN3C(=O)C(C)(C)c4ccc(C(=O)NCc5c(F)cc(F)cc5F)cc43)c(C)o2)c1 [Example 78, 3,3-dimethyl-1-((5-methyl-2-(m-tolyl)oxazol-4-yl)methyl)-2-oxo-N-(2,4,6-trifluorobenzyl)indoline-6-carboxamide] | > 10 µM |
| CC1(C)C(=O)N(Cc2c(F)cc(O)cc2F)c2cc(C(=O)NCc3c(F)cc(F)cc3F)ccc21 [Example 65, 1-(2,6-difluoro-4-hydroxybenzyl)-3,3-dimethyl-2-oxo-N-(2,4,6-trifluorobenzyl)indoline-6-carboxamide] | ≤ 1 µM |
| CC1(C)C(=O)N(Cc2ccccc2)c2cc(C(=O)NCc3ccccc3)ccc21 [Example 10, N,1-dibenzyl-3,3-dimethyl-2-oxoindoline-6-carboxamide] | 1 to 10 µM |
| CC1(C)C(=O)N(Cc2cc3ccccc3o2)c2cc(C(=O)NCc3c(F)cc(F)cc3F)ccc21 [Example 131, 1-(benzofuran-2-ylmethyl)-3,3-dimethyl-2-oxo-N-(2,4,6-trifluorobenzyl)indoline-6-carboxamide] | > 10 µM |
| CC1(C)C(=O)N(Cc2cc(F)cc(F)c2)c2nc(C(=O)NCCc3c(F)cc(F)cc3F)ccc21 [Example 190, 1-(3,5-difluorobenzyl)-3,3-dimethyl-2-oxo-N-(2,4,6-trifluorophenethyl)-2,3-dihydro-1H-pyrrolo[2,3-b]pyridine-6-carboxamide] | > 10 µM |
| CC1(C)C(=O)N(Cc2ccnc(F)c2)c2cc(C(=O)NCc3c(F)cc(F)cc3F)ccc21 [Example 49, 1-((2-fluoropyridin-4-yl)methyl)-3,3-dimethyl-2-oxo-N-(2,4,6-trifluorobenzyl)indoline-6-carboxamide] | 1 to 10 µM |
| CC1(CN)C(=O)N(Cc2cc(F)cc(F)c2)c2cc(C(=O)NCc3c(F)cc(F)cc3F)ccc21 (centres unmarked) [Example 172, 3-(aminomethyl)-1-(3,5-difluorobenzyl)-3-methyl-2-oxo-N-(2,4,6-trifluorobenzyl)indoline-6-carboxamide] | > 10 µM |
| CC1(C)C(=O)N(Cc2cc(F)cc(F)c2)c2nc(C(=O)NCc3ccc(C#N)cc3)ccc21 [Example 192, N-(4-cyanobenzyl)-1-(3,5-difluorobenzyl)-3,3-dimethyl-2-oxo-2,3-dihydro-1H-pyrrolo[2,3-b]pyridine-6-carboxamide] | 1 to 10 µM |
| CC1C(=O)N(Cc2cc(F)cc(F)c2)c2cc(C(=O)NCc3c(F)cc(F)cc3F)ccc21 (centres unmarked) [Example 53, 1-(3,5-difluorobenzyl)-3-methyl-2-oxo-N-(2,4,6-trifluorobenzyl)indoline-6-carboxamide] | > 10 µM |
| Cc1ccc(CNC(=O)c2ccc3c(c2)N(Cc2ccccc2Cl)C(=O)C3(C)C)o1 [Example 51, 1-(2-chlorobenzyl)-3,3-dimethyl-N-((5-methylfuran-2-yl)methyl)-2-oxoindoline-6-carboxamide] | 1 to 10 µM |
| Cc1cc(CN2C(=O)C(C)(C)c3ccc(C(=O)NCc4ccc(C)o4)cc32)ccn1 [Example 55, 3,3-dimethyl-N-((5-methylfuran-2-yl)methyl)-1-((2-methylpyridin-4-yl)methyl)-2-oxoindoline-6-carboxamide] | > 10 µM |
| Cc1ccnc(CNC(=O)c2ccc3c(c2)N(Cc2c(F)cccc2Cl)C(=O)C3(C)C)c1 [Example 32, 1-(2-chloro-6-fluorobenzyl)-3,3-dimethyl-N-((4-methylpyridin-2-yl)methyl)-2-oxoindoline-6-carboxamide] | > 10 µM |
| CC1(C)C(=O)N(Cc2nc3ccccc3o2)c2cc(C(=O)NCc3c(F)cc(F)cc3F)ccc21 [Example 101, 1-(benzo[d]oxazol-2-ylmethyl)-3,3-dimethyl-2-oxo-N-(2,4,6-trifluorobenzyl)indoline-6-carboxamide] | > 10 µM |
| CC1(C)C(=O)N(Cc2cc(F)cc(F)c2)c2cc(C(=O)NCC3CCC(F)(F)C3)ccc21 (centres unmarked) [Example 39, 1-(3,5-difluorobenzyl)-N-((3,3-difluorocyclopentyl)methyl)-3,3-dimethyl-2-oxoindoline-6-carboxamide] | > 10 µM |
| O=C(NCc1ccco1)c1ccc2sc(=O)n(Cc3c(F)cccc3Cl)c2c1 [Example 201, 3-(2-chloro-6-fluorobenzyl)-N-(furan-2-ylmethyl)-2-oxo-2,3-dihydrobenzo[d]thiazole-5-carboxamide] | > 10 µM |
| CC1(C)C(=O)N(Cc2c(F)cccc2Cl)c2cc(C(=O)NCc3ccc(N)cc3)ccc21 [Example 85, N-(4-aminobenzyl)-1-(2-chloro-6-fluorobenzyl)-3,3-dimethyl-2-oxoindoline-6-carboxamide] | 1 to 10 µM |
| CN(C)C1(C)C(=O)N(Cc2c(F)cccc2Cl)c2cc(C(=O)NCc3c(F)cc(F)cc3F)ccc21 (centres unmarked) [Example 152, 1-(2-chloro-6-fluorobenzyl)-3-(dimethylamino)-3-methyl-2-oxo-N-(2,4,6-trifluorobenzyl)indoline-6-carboxamide] | 1 to 10 µM |

Reference: patent publication US20200172483A1, “HETEROCYCLIC SMALL MOLECULE MODULATORS OF HUMAN STING” (Curadev Pharma Limited, priority 2017, published 2020)
